Experimental findings from patent US11542282B2, “Low affinity poly(AD-ribose) polymerase 1 dependent cytotoxic agents” (THE TRUSTEES OF THE UNIVERSITY OF PENNSYLVANIA, priority 2018, dated 2023) are described below.

Assay [1] deals with MEF PARP-2 (-/-) KO cells. Nature of the assay: Cell viability assay in MEF PARP-2 KO-/- cells. It counts as cell-based, mouse. The note with it: NA = Not applicable, no cell death observed. As to the method:
(§1) Genetically engineered PARP-1 and PARP-2 double knockout mouse embryonic fibroblast (MEF) were used for cell viability studies with wildtype control.
(§2) Cell viability assays were carried out using four cell lines including OVCAR8, MEF wt, MEF PARP-1 (−/−) KO, and MEF PARP-2 (−/−) KO as described in Makvandi cited above. Briefly, cells were seeded in black wall clear bottom 96-well plates at concentrations of 1,000 cells/well. […] Plates were read on an Enspire multimode plate reader (Perkin Elmer). Data was normalized to percent survival at each concentration evaluated by diving the luminescent signal in treated wells vs. the average of vehicle controls. Experiments were repeated three times and all compounds were assayed during each experiment.
(§3) This isogenic model was selected due to the highly conserved nature of the PARP catalytic domain, all-owing investigation in enzyme specificity.
The cell cytotoxicity profile of these selected compounds in MEF PARP-2 KO−/− cell lines was then analyzed as described above.

In another assay the target is PARP-1 (Homo sapiens, UniProt P09874). The assay can be described thus: PARP-1 radioligand binding in live OVCAR8 cells ([125I]KX1 competition). The note with it: for IC50: radioligand binding in OVCAR8 cells; for enzyme affinity in contrast to respective boc-protected analogue: free-amine derivatives. As to the method:
Cells were cultured using standard techniques at 37° C. with 5% CO2 and 15% 02. […] Genetically engineered PARP-1 and PARP-2 double knockout mouse embryonic fibroblast (MEF) were used for cell viability studies with wildtype control. All cells were cultured in RPMI 1640 with 10% FBS and 1% penicillin/streptomycin.
The affinity of each compound for the PARP-1 enzyme was evaluated using a radioligand binding method described in Makvandi, A radiotracer strategy to quantify PARP-1 expression in vivo provides a biomarker that can enable patient selection for PARP inhibitor therapy. Cancer Research 2016. Briefly, OVCAR8 ovarian cancer cells were seeded in 96-well Stripwell plates at a density of 40,000 cells/well 24 hrs prior to the study. On the day of study, compounds were diluted in RPMI to concentrations of 100 μM-0.064 nM. […] Reactions were allowed to equilibrate for 1 hr and were then washed with 200 μL of PBS. Wells were separated and counted on an automatic Wizard gamma counter (Perkin Elmer, Waltham Mass.). […] Experiments were repeated three times with adjusting dose concentrations to increase accuracy of IC50 values.
Compounds 10-17 were evaluated for PARP-1 inhibition using a radioligand binding assay protocol with BRCA1 methylated ovarian cancer cells (OVCAR8) as described above. See, Table 3. […] Compared to 1a, oxaazaspiro analogue 1b performed slightly better with scaffold 10b displaying a PARP-1 binding value of 24.9 nM.

The next assay concerns MEF WT cells. Nature of the assay: Cell viability assay in MEF WT cells. It counts as cell-based, mouse. The note with it: NA = Not applicable, no cell death observed. As to the method: as §1, §2, §3

As usually defined, the EC50 is the concentration at which the effect is half-maximal. Read a high EC50 as lower potency in that assay. As usually defined, the IC50 is the point on the concentration scale where inhibition reaches its midpoint.

Chain of PARP-1 (P09874 whole entry): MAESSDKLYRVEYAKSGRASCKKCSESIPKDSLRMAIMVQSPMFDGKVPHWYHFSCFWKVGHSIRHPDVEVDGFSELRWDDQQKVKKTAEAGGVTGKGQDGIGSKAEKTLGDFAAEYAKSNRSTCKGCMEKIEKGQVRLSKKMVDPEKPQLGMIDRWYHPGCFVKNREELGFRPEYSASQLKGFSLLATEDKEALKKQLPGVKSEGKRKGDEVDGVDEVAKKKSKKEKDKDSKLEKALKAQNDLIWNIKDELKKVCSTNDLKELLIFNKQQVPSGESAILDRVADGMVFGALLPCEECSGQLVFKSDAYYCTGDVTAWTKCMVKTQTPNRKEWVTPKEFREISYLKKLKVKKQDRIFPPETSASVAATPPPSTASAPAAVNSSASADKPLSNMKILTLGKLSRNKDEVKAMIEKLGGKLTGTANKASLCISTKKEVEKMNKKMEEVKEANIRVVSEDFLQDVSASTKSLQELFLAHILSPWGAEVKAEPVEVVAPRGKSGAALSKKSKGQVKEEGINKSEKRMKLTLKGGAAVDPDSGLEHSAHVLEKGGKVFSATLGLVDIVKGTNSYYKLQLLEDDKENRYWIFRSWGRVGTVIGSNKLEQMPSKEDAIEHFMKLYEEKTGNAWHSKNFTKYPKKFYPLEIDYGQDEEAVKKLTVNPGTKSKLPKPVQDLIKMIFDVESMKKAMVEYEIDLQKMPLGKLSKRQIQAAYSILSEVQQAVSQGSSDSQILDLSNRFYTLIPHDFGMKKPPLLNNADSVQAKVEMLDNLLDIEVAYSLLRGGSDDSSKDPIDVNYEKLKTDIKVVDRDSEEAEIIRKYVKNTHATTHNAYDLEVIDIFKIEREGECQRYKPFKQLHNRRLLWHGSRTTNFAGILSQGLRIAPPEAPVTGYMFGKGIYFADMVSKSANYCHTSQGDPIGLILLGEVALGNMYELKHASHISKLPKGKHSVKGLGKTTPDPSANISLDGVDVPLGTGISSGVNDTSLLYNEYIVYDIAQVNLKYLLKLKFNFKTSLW

Consider `O=C(c1cc(Cc2n[nH]c(=O)c3ccccc23)ccc1F)N1CCC2(CCN(C(=O)C3CC3)CC2)C1` [Compound 16d, 4-(3-(8-(Cyclopropanecarbonyl)-2,8-diazaspiro[4.5]decane-2-carbonyl)-4-fluorobenzyl)phthalazin-1(2H)-one], for which the values for the EC50 (in assay [1] (Mus musculus); on PARP-1; in the assay on MEF WT cells (Mus musculus)) were 61 µM, 0.225 µM and 41.6 µM, respectively.

Take `O=C(c1cc(Cc2n[nH]c(=O)c3ccccc23)ccc1F)N1CC2(CC(c3ccc(F)cc3)C2)C1` [Compound 39, 4-(4-fluoro-3-(6-(4-fluorophenyl)-2-azaspiro[3.3]heptane-2-carbonyl)benzyl)phthalazin-1(2H)-one]: at PARP-1, the midpoint of the response, the EC50, lay at 0.0028 µM.

For the compound `CC(C)(C)OC(=O)N1CC2(C1)CN(C(=O)c1cc(Cc3n[nH]c(=O)c4ccccc34)ccc1F)C2` [Compound 10c, Tert-butyl 6-(2-fluoro-5-((4-oxo-3,4-dihydrophthalazin-1-yl)methyl)benzoyl)-2,6-diazaspiro[3.3]heptane-2-carboxylate], the concentration giving a half-maximal response (EC50) is 24.7 µM in assay [1] (Mus musculus), 0.552 µM on PARP-1 and 31.1 µM with MEF WT cells (Mus musculus). Also, the “fold lower PARP-1 affinity compared to the methylene congener” value at PARP-1 (10c vs 10a, 15b vs 15a) is recorded as roughly 16 fold. In addition, the IC50 on PARP-1 turned out to be 0.552 µM.

Take `O=C(c1cc(Cc2n[nH]c(=O)c3ccccc23)ccc1F)N1CC2(CCN(C(=O)C3CC3)CC2)C1` [Compound 12d, 4-(3-(7-(Cyclopropanecarbonyl)-2,7-diazaspiro[3.5]nonane-2-carbonyl)-4-fluorobenzyl)phthalazin-1(2H)-one]: the EC50 in assay [1] (Mus musculus) was 57.2 µM; at PARP-1, 0.1 µM; in the assay on MEF WT cells (Mus musculus), 49.3 µM.

Consider `CC(C)(C)OC(=O)N1CC2(CCN2C(=O)c2cc(Cc3n[nH]c(=O)c4ccccc34)ccc2F)C1` [Compound 11b, Tert-butyl 1-(2-fluoro-5-((4-oxo-3,4-dihydrophthalazin-1-yl)methyl)benzoyl)-1,6-diazaspiro[3.3]heptane-6-carboxylate], for which the EC50 was 35.8 µM in assay [1] (Mus musculus) and 42.9 µM in the assay on MEF WT cells (Mus musculus).

With `O=C(c1cc(Cc2n[nH]c(=O)c3ccccc23)ccc1F)N1CC2(CCC2)C1` [Compound 10a, 4-(4-Fluoro-3-(2-azaspiro[3.3]heptane-2-carbonyl)benzyl)phthalazin-1(2H)-one], the EC50 in assay [1] (Mus musculus) amounted to 49 µM; on PARP-1 it was 0.0339 ± 0.0015 µM; with MEF WT cells (Mus musculus), 48.3 µM.

Regarding `O=C(c1cc(Cc2n[nH]c(=O)c3ccccc23)ccc1F)N1CCC12CCCCC2` [Compound 13a, 4-(4-Fluoro-3-(1-azaspiro[3.5]nonane-1-carbonyl)benzyl)phthalazin-(2H)-one], the results for the concentration for a half-maximal effect (EC50) (in assay [1] (Mus musculus); on PARP-1; in the assay with MEF WT cells (Mus musculus)) were 78.8 µM, 0.284 ± 0.0012 µM and 32.6 µM, respectively.

Turning to `O=C(c1cc(Cc2n[nH]c(=O)c3ccccc23)ccc1F)N1CCC2(CCCCC2)CC1` [Compound 17a, 4-(4-Fluoro-3-(3-azaspiro[5.5]undecane-3-carbonyl)benzyl)phthalazin-1(2H)-one], the values for the EC50 (in assay [1] (Mus musculus); on PARP-1; in the assay with MEF WT cells (Mus musculus)) were 41.3 µM, 0.0571 ± 0.0012 µM and 41.3 µM, respectively.

Regarding `O=C(c1cc(Cc2n[nH]c(=O)c3ccccc23)ccc1F)N1CCC2(CCCC2)C1` [Compound 15a, 4-(4-Fluoro-3-(2-azaspiro[4.4]nonane-2-carbonyl)benzyl)phthalazin-1(2H)-one], the results for the concentration for a half-maximal effect (EC50) (in assay [1] (Mus musculus); on PARP-1; in the assay on MEF WT cells (Mus musculus)) were 55.5 µM, 0.0514 ± 0.0011 µM and 31.7 µM, respectively.

As to `O=C(C1CC1)N1CC2(CCN2C(=O)c2cc(Cc3n[nH]c(=O)c4ccccc34)ccc2F)C1` [Compound 11d, 4-(3-(6-(Cyclopropanecarbonyl)-1,6-diazaspiro[3.3]heptane-1-carbonyl)-4-fluorobenzyl)phthalazin-1(2H)-one], the EC50 in assay [1] (Mus musculus) came out at 46.7 µM; in the assay with MEF WT cells (Mus musculus), 53.2 µM.

At PARP-1, `O=C(c1cc(Cc2n[nH]c(=O)c3ccccc23)ccc1F)N1CCC(c2ccc(F)cc2)CC1` [Compound 36, 4-(4-fluoro-3-(4-(4-fluorophenyl)piperidine-1-carbonyl)benzyl)phthalazin-1(2H)-one] came in with an EC50 of 0.0013 µM. This counts as single-digit nanomolar.

On PARP-1, `O=C(c1cc(Cc2n[nH]c(=O)c3ccccc23)ccc1F)N1CC2(CNC2)C1` [Compound 10d, 4-(4-Fluoro-3-(2,6-diazaspiro[3.3]heptane-2-carbonyl)benzyl)phthalazin-1(2H)-one] gave an EC50 of 2.39 µM. This EC50 lies about 1800-fold higher than the previous one.

Consider `CC(C)(C)OC(=O)N1CC2(CCN(C(=O)c3cc(Cc4n[nH]c(=O)c5ccccc45)ccc3F)C2)C1` [Compound 14b], for which the EC50 in assay [1] (Mus musculus) was 31.8 µM; at PARP-1, 1.19 µM; in the assay on MEF WT cells (Mus musculus), 29.2 µM.

In the case of `O=C(c1cc(Cc2n[nH]c(=O)c3ccccc23)ccc1F)N1CCC12CCNCC2` [Compound 13c, 4-(4-Fluoro-3-(1,7-diazaspiro[3.5]nonane-1-carbonyl)benzyl)phthalazin-1(2H)-one], the results for the 50% effective concentration (EC50) (in assay [1] (Mus musculus); at PARP-1) were 106 µM and 0.11 µM, respectively. For the same compound, the “fold improvement of PARP-1 affinity upon removing the boc-group” value on PARP-1 (13c vs 13b) is on record as roughly 29 fold. Also, the IC50 on PARP-1 is 0.11 µM.

`O=C(c1cc(Cc2n[nH]c(=O)c3ccccc23)ccc1F)N1CCC2(CCNC2)C1` (centres unmarked) [Compound 15c, 4-(4-Fluoro-3-(2,7-diazaspiro[4.4]nonane-2-carbonyl)benzyl)phthalazin-1(2H)-one]: the figures for the EC50 (in assay [1] (Mus musculus); at PARP-1) were 512 µM and 1.12 µM, respectively. For the same compound, the “enzyme affinity in contrast to respective boc-protected analogue” value at PARP-1 is reported as “slight increase in enzyme affinity”.

In the case of `O=C(c1cc(Cc2n[nH]c(=O)c3ccccc23)ccc1F)N1CCC12CCC2` [Compound 11a, 4-(4-Fluoro-3-(I-azaspiro[3.3]heptane-1-carbonyl)benzyl)phthalazin-1(2H)-one], the values for the 50% effective concentration (EC50) (in assay [1]; in the assay with MEF WT cells) were 58.3 µM and 48 µM, respectively.

In the case of `O=C(c1cc(Cc2n[nH]c(=O)c3ccccc23)ccc1F)N1CC2(C1)CN(C(=O)C1CC1)C2` [Compound 10e, 4-(3-(6-(Cyclopropanecarbonyl)-2,6-diazaspiro[3.3]heptane-2-carbonyl)-4-fluorobenzyl)phthalazin-1(2H)-one], the concentration giving a half-maximal response (EC50) was 59.8 µM in assay [1] (Mus musculus) and 0.0126 µM on PARP-1. On PARP-1, this compound gave an IC50 of 0.0126 µM.

Compound `O=C(c1cc(Cc2n[nH]c(=O)c3ccccc23)ccc1F)N1CCC2(CCNCC2)C1` [Compound 16c, 4-(4-Fluoro-3-(2,8-diazaspiro[4.5]decane-2-carbonyl)benzyl)phthalazin-1(2H)-one] had a 50% effective concentration (EC50) on PARP-1 of 3.88 µM. In other words, the single-digit micromolar range.

Compound `COC1CC(NC(=O)c2cc(Cc3n[nH]c(=O)c4ccccc34)ccc2F)C1` (centres unmarked) [Compound 18] had an EC50 at PARP-1 of 0.0741 µM. This EC50 is about 52-fold lower than that of the compound before.

As for `O=C(c1cc(Cc2n[nH]c(=O)c3ccccc23)ccc1F)N1CCC12CNC2` [Compound 11c, 4-(4-Fluoro-3-(1,6-diazaspiro[3.3]heptane-1-carbonyl)benzyl)phthalazin-1(2H)-one], the “enzyme affinity in contrast to respective boc-protected analogue” value at PARP-1 is reported as “slight increase in enzyme affinity”.

As to `O=C(c1cc(Cc2n[nH]c(=O)c3ccccc23)ccc1F)N1CCC2(CCN(C(=O)C3CC3)C2)C1` (centres unmarked) [Compound 15d, 4-(3-(7-(Cyclopropanecarbonyl)-2,7-dizaspiro[4.4]nonane-2-carbonyl)-4-fluorobenzyl)phthalazin-1(2H)-one], the concentration for a half-maximal effect (EC50) in assay [1] (Mus musculus) was 70.9 µM; on PARP-1, 2.59 µM.

At PARP-1, `CC(C)(C)OC(=O)N1CCC2(C1)CN(C(=O)c1cc(Cc3n[nH]c(=O)c4ccccc34)ccc1F)C2` [Compound 14b] gave an IC50 of 1.19 µM. This counts as single-digit micromolar.

In the case of `O=C(c1cc(Cc2n[nH]c(=O)c3ccccc23)ccc1F)N1CCC2(CNC2)C1` [Compound 14c, 4-(4-Fluoro-3-(2,6-diazaspiro[3.4]octane-6-carbonyl)benzyl)phthalazin-1(2H)-one], it took 1.24 µM to reach a half-maximal effect on PARP-1 (EC50).

As for `O=C(c1cc(Cc2n[nH]c(=O)c3ccccc23)ccc1F)N1CC2(CCNCC2)C1` [Compound 12c, 4-(4-Fluoro-3-(2,7-diazaspiro[3.5]nonane-2-carbonyl)benzyl)phthalazin-1(2H)-one], the EC50 in assay [1] (Mus musculus) was 68.5 µM; on PARP-1, 1.42 µM. Also, at PARP-1, the “enzyme affinity in contrast to respective boc-protected analogue” value is “slight increase in enzyme affinity”.

Turning to `O=C(c1cc(Cc2n[nH]c(=O)c3ccccc23)ccc1F)N1CC2(CC(OCCF)C2)C1` [Compound 37B, 4-(4-fluoro-3-(6-(2-fluoroethoxy)-2-azaspiro[3.3]heptane-2-carbonyl)benzyl)phthalazin-1(2H)-one], the EC50 at PARP-1 was 0.0107 ± 0.0011 µM.

Regarding `O=C(c1cc(Cc2n[nH]c(=O)c3ccccc23)ccc1F)N1CCC2(CCNCC2)CC1` [Compound 17c, 4-(4-Fluoro-3-(3,9-diazaspiro[5.5]undecane-3-carbonyl)benzyl)phthalazin-1(2H)-one], the midpoint of the response in assay [1] (Mus musculus), the EC50, lay at 59.7 µM. Moreover, on PARP-1, it took 0.234 µM to reach a half-maximal effect (EC50) and the “enzyme affinity in contrast to respective boc-protected analogue” value is “slight increase in enzyme affinity”.
